Laboratory results reported in patent US20240358692A1, “TREATMENT OF SCLERODERMA” (Aisa Pharma, Inc., priority 2023, published 2024).

How the values were obtained:
participants with SSc-RP [1] = experiment: Average pain score recorded during weekly RP attacks (11-point Likert scale); format: in vivo, human; conditions: Tadalafil 5 mg (n = 4); Table G
Excerpt: The absolute change in average pain score (11-point Likert scale) of weekly RP attacks from baseline to the end of each Dosing Period will be a secondary outcome variable. The sponsor-developed participant-informed diary will be used to record data. The average pain score of weekly RP attacks is defined as the total pain scores divided by total number of RP attacks within the last 7 days of each dosing period. Average of the last 7 days of screening assessments will be used as baseline for the analysis of all periods. The variable will be calculated similar to frequency data as before.

participants with SSc-RP [2] = experiment: SHAQ - Standard Disability Index; format: in vivo, human; set-up: key to SHAQ Standard Disability Index, In-Clinic Visit (Day 12), Mean / SHAQ Standard Disability Index, In-Clinic Visit (Day 12), Median / SHAQ Standard Disability Index, Day 12, Mean / SHAQ Standard Disability Index, Day 12, Median: 0 = without any difficulty to 3 = unable to do; conditions: Tadalafil 5 mg
Excerpt: The standard, validated, patient reported outcome measures tool for SSc patients, the Scleroderma Health Assessment Questionnaire (SHAQ), will be used to assess the participant qualify of life. Details are attached in the Appendix. The participant quality of life will be scored, and a disability index calculated for each questionnaire completed by the patient at Screening and each in-clinic visit. The absolute change in participant quality of life from baseline to the end of each dosing period will be calculated similar to frequency data as before.
The SHAQ is used to calculate a Disability Index to assess the participant qualify of life. The eight categories assessed by the Disability Index are 1) dressing and grooming, 2) arising, 3) eating, 4) walking, 5) hygiene, 6) reach, 7) grip, and 8) common daily activities. For each of these categories, patients report the amount of difficulty they have in performing two or three specific activities.
There are four possible responses for the Disability Index questions: • Without any difficulty=0 • With some difficulty=1 • With much difficulty=2 • Unable to do=3 • The highest score reported by the patient for any component question of the eight categories determines the score for that category. • If a component question is left blank or the response is too ambiguous to assign a score, then the score for that category is determined by the remaining completed question(s). • If all component questions are blank or if more than one answer is given, then follow up with the respondent is required. • If the respondent's mark is between the response columns, then move it to the closest one. If it's directly between the two, move it to the higher one.
This question results in a new set of category scores that are computed by adjusting the score for each category, if necessary, based on the patient's use of an aid or device or assistance for that category. If either devices and/or help from another person are checked for a category, the score is set to “2”, unless the score is already “3” (i.e., scores of “0” or “1” are increased to “2”). For example, if the highest score for the dressing category is “1”, and the patient says they use a device for dressing, the computed category score would be “2”. The sum of the computed categories scores is then calculated and divided by the number of categories answered. This gives a score in the 0 to 3 range.

[3] = Day 12, PP Population Part A, sensitivity analysis

## CN1CC(=O)N2[C@H](c3ccc4c(c3)OCO4)c3[nH]c4ccccc4c3C[C@@H]2C1=O [Tadalafil]
Participants with SSc-RP [1]
  Average Pain Score Change From Baseline [Mean (SD)]: 0.37
Participants with SSc-RP [2]; [3]
  SHAQ Standard Disability Index, In-Clinic Visit (Day 12), Mean: 0.531
  SHAQ Standard Disability Index, In-Clinic Visit (Day 12), Median: 0.563
Participants with SSc-RP [2]; SSc patients, PP, Part A
  SHAQ Standard Disability Index, Change from Baseline, Max: 0.00
  SHAQ Standard Disability Index, Change from Baseline, Min: −0.13,
  SHAQ Standard Disability Index, Change from Baseline, Q1: −0.125,
  SHAQ Standard Disability Index, Change from Baseline, Q3: 0.000
  SHAQ Standard Disability Index, Day 12, Max: 1.00
  SHAQ Standard Disability Index, Day 12, Min: 0.00,
  SHAQ Standard Disability Index, Day 12, Q1: 0.250,
  SHAQ Standard Disability Index, Day 12, Q3: 0.813
  SHAQ Standard Disability Index, Percent Change from Baseline, Max: 0.0
  SHAQ Standard Disability Index, Percent Change from Baseline, Min: −16.7,
  SHAQ Standard Disability Index, Percent Change from Baseline, Q1: −16.67,
  SHAQ Standard Disability Index, Percent Change from Baseline, Q3: 0.00
